“And” between values parts separate entries of the source, which are not always exact repeats. Equal values may be shown once. “Also recorded” adds a separate entry of the source.
What was measured:
[1] = test system: metabotropic glutamate receptor; assay: Behavioral analysis after ICV infusion (quisqualate excitotoxicity); format: in vivo, male F344 rats; details: for effective dose: ICV, pilot testing; for death, cases: 120 min; for convulsant behavior, compound alone: no quisqualate
Procedure: The animals used in this experiment were male F344 rats (Charles River Breeding Laboratories). The animals were housed individually, exposed to a 12-hour light-dark cycle, and allowed free access to food and water. The animals weighed approximately 250 g at the beginning of each experiment and were weighed daily. In addition, the animals were habituated to handling before each experiment.
(§1) Before administering various compounds, the animals were anesthetized with sodium pentobarbital (50 mg/kg, i.p.) and positioned in a sterotaxic instrument. A 26 gauge cannula was inserted into the cerebral ventricle at the following co-ordinates: 1.0 mm posterior to bregma, 1.5 mm lateral to the midline, and 4.0 mm below the dorsal surface of the neocortex. Cannulas were capped and fixed in place with dental cement. One week after cannulation, 10 μl of each of the treatment drugs was infused, ICV (i.e. into the ventricals of the brain), via a micropump at a rate of 10 μl/min. For this procedure, the animals were lightly restrained and unanesthetized. Following administration of the compound, the infusion cannula remained in position for one minute, after which the permanent in situ cannula was capped.
The compounds administered were obtained from a commercial supplier (Sigma Chemical Co., St. Louis, Mo.) and dissolved in saline prior to injection. […]
Pilot studies identified several specific behavioral measures that could be used to indicate excessive activation of the metabotropic receptor (see Table 3). […] The experiments that follow were based on an analysis of these behaviors over a two hour period after administration of the compounds of the invention. Behavioral observation was carried out by two trained observers, who worked independently of one another and who were blind to the experimental groups. […] Frequency and duration means were computed by subtracting pre-infusion means from post-infusion means.
Some of the experiments that were performed first were carried out to determine the amount of quisqualate required to produce behavioral and histological changes and the amount of lysosphingolipids that could effectively prevent or reverse these effects. Table 3 outlines the behavioral responses of rats to various doses of quisqualate (injected as described above) and the associated histological changes. The behaviors are listed as they occur chronologically. The limb clasp and reflex tests indicate the degree of decortication. A limb clasp or placement score of zero is normal, and a score of 3 is severely abnormal.
The data shown in Table 4 represents the observations of pilot studies aimed at determining the effect (on behavior) of lysosphingolipids infused directly into the lateral ventricles of the brain 30 minutes prior to infusion of quisqualate.
The experiment began one week after ICV cannulation. Animals (n=6 per group) were randomly allocated to one of 8 treatment groups: (1) saline, (2) quisqualate at 225 nmoles, (3) psychosine at 125 nmoles, (4) lysosphingomyelin at 125 nmoles, (5) lysosphingomyelin at 150 nmoles, (6) quisqualate at 225 nmoles and psychosine at 125 nmoles, (7) quisqualate at 225 nmoles and lysosphingomyelin at 125 nmoles, and (8) quisqualate at 225 nmoles and lysosphingomyelin at 150 nmoles. Following the baseline observation period, animals received the first of two ICV infusions (all infusions were of a 10 μl volume that was administered over a 1 minute period). For the first five groups listed above, this consisted of saline (10 μl/minute), for the following 3 groups the infusions were psychosine at 125 nmoles, lysosphingomyelin at 125 nmoles, or Iysosphingomyelin at 150 nmoles, respectively. Thirty minutes later, all animals received the second infusion which, for the first five groups listed above, consisted of saline, quisqualate at 225 nmoles, psychosine at 125 nmoles, lysosphingomyelin at 125 mrnoles, and lysosphingomyelin at 150 nmoles respectively. […]

[2] = test system: hippocampal neurons; assay: Histological analysis of brain 7 days after ICV infusion (cresyl violet); format: in vivo, male F344 rats; details: rat
Procedure: as §1
Seven days after the compounds were administered, animals were sacrificed by transcardial perfusion with neutralized, buffered 10% formalin-saline. Their brains were removed, post-fixed overnight in 10% formalin-saline, and sectioned along the coronal plane (into 50 μm thick sections) on a freezing microtome. The sections were stained with cresyl violet to determine the extent of cellular destruction. […]
Given that high concentrations of metabotropic receptors are located in the hippocampus, and that the hippocampus is particularly vulnerable to the effects of a variety of insults including ischemia and hypoxia, this region was examined for evidence of neuronal degeneration due to glutamate excitotoxicity.

[3] = Lysosphingolipid loading of isolated neuronal plasma membrane; format: in vitro ADME, chick; details: Plasma Membrane Suspension, 10 μmolar exposure
Description: Total lipids were removed from the neuron samples by repeated extraction with chloroforn:methanol (2:1, vol:vol). […] The recovered lysosphingolipids were stably tagged with NBDZF by the rapid procedure of Nozowa et al. (supra). The fluorescence tagged neuronal lysosphingolipids were separated in parallel with reference standards NBDZF-Sph, NBDZF-Psy, and NBDZF-Lsm on high performance silica gel thin layer chromatography plates with acetonitrile:H2 O (10:0.5, vol:vol). The highly fluorescent, well separated bands were scraped from the plate. The fluorescence tagged lysosphingolipids are eluted from the scraped silica gel with methanol:1 N HCl (1:0.02, vol:vol). The fluorescence tagged lysosphingolipid eluates were quantitated against reference standards by fluorescence measurement in a Perkin-Elmer LS-5 Fluorescence Spectrometer.
Physiologically active phospholipase C is present on the endofacial portion of the plasma membrane. A procedure for examining its activity in an intact membrane is provided. […] One hundred Petri dishes of cultured cortical neurons were incubated overnight with 50 μCi [^3 H]myo-inositol per mL of culture medium. […] The collected neurons were homogenized in 5 mL 0.32 M sucrose and centrifuged at 1000×g for 15 minutes. The supernatant was layered on top of 2 ml 1.2 M sucrose and centrifuged at 300,000×g for 20 minutes. The sedimented pellet was resuspended by sonication for 10 seconds in 50 mM Tris buffer (pH 7.4), containing 0.3 μM CaCl2, 1 mM MgCl2, and 0.01% ascorbic acid.
The suspended plasma membrane preparation was apportioned into 250 μl samples, each providing approximately 100 μg membrane protein. Sphingosine, psychosine, and lysosphingomyelin were added to each plasma membrane sample. […] Samples were analyzed for lysosphingolipid loading (i.e., membrane lysosphingolipid content following exposure to exogenous sphingolipid) by fluorescence tagging. […] Values are reported in pmoles lysosphingolipid/mg plasma membrane protein.

[4] = Quisqualate 225 nmoles ICV, rat
[5] = Quisqualate 250 nmoles ICV, rat

N[C@@H](Cn1oc(=O)[nH]c1=O)C(=O)O [Quisqualate, quisqualate]
effective dose ([1]; rat): 225 nmol | BEHAVIOR ([1]; Quisqualate 100 nmoles ICV, rat): teeth chatter; also recorded: mild scratching; also recorded: hind leg weakness 60 minutes | placement and clasp reflex score ([1]; Quisqualate 100 nmoles ICV, score zero is normal, 3 is severely abnormal): 0 | BEHAVIOR ([1]; Quisqualate 150 nmoles ICV, rat): teeth chatter; also recorded: localized twitches; also recorded: mild hyperactivity walking in circles; also recorded: hind leg weakness for 60 minutes | BEHAVIOR ([1]; Quisqualate 150 nmoles ICV, rat, listed as quisqualate): increase in activity and teeth chattering | placement and clasp reflex score ([1]; Quisqualate 150 nmoles ICV, score zero is normal, 3 is severely abnormal): 0 | BEHAVIOR ([1]; Quisqualate 200 nmoles ICV, rat): teeth chatter; also recorded: occasional mild convulsions; also recorded: hyperactivity - circle walking; also recorded: episodic akinesia/tonic immobility; also recorded: hind leg weakness | limb clasp and placement reflex score ([1]; Quisqualate 200 nmoles ICV, score zero is normal, 3 is severely abnormal): 0 | BEHAVIOR [1, 4]: teeth chatter; also recorded: hind leg paralysis; also recorded: hyperactivity/walk in circles; also recorded: full body convulsions - moderate; also recorded: localized spasms twitching/jerking; also recorded: episodic akinesia/tonic immobility; also recorded: respiratory distress; also recorded: foaming at mouth | death, cases [1, 4]: 60% | BEHAVIOR ([1]; Quisqualate 225 nmoles ICV, rat, listed as quisqualate): moderate convulsions | placement and clasp reflex score ([1]; Quisqualate 225 nmoles ICV, score zero is normal, 3 is severely abnormal): 1-2 | BEHAVIOR [1, 5]: vocalization; also recorded: teeth chattering; also recorded: scratching; also recorded: localized spasms jerking/twitching; also recorded: full body convulsions-severe/repeated; also recorded: foaming at mouth; also recorded: respiratory distress | death, cases [1, 5]: 75% | BEHAVIOR ([1]; Quisqualate 250 nmoles ICV, rat, listed as quisqualate): severe convulsions and death | placement and clasp reflex score ([1]; Quisqualate 250 nmoles ICV, score zero is normal, 3 is severely abnormal): 3 | BEHAVIOR ([1]; Quisqualate 1 μmoles ICV, rat): severe repeated full body convulsions; also recorded: severe scratching; also recorded: severe teeth chattering; also recorded: foaming at mouth | time to death ([1]; Quisqualate 1 μmoles ICV, rat): 5 to 15 min | death, cases ([1]; Quisqualate 1 μmoles ICV, rat): 100% | BEHAVIOR ([1]; Quisqualate 500 μmoles ICV, rat): vocalization | duration of teeth chattering, akinesia and mobilization versus lysosphingolipid-alone groups and quisqualate + lysosphingomyelin 150 nmoles ([1]; quisqualate alone 225 nmoles ICV): significantly (p<.01) more time engaged in these behaviors | number of convulsions/spasms compared to all other groups ([1]; quisqualate alone at 225 nmoles ICV, 2 hours observation, n=6): significantly (p.<01) more convulsions/spasms | HISTOLOGICAL CHANGES ([2]; Quisqualate 100 nmoles ICV): none observed | HISTOLOGICAL CHANGES ([2]; Quisqualate 150 nmoles ICV): none observed | HISTOLOGICAL CHANGES ([2]; Quisqualate 225 nmoles ICV, seven days after application): loss of CA1 | HISTOLOGICAL CHANGES ([2]; Quisqualate 225 nmoles ICV, seven days after application, listed as quisqualate): severe loss of neurons in the hippocampus; also recorded: considerable loss of CA1 pyramidal neurons in the hippocampus | HISTOLOGICAL CHANGES ([2]; Quisqualate 250 nmoles ICV, seven days after application, listed as quisqualate): severe loss of neurons in the hippocampus | HISTOLOGICAL CHANGES ([2]; Quisqualate 500 μmoles ICV): loss of neurons

CCCCCCCCCCCCC/C=C/[C@@H](O)[C@@H](N)COP(=O)([O-])OCC[N+](C)(C)C [lysosphingomyelin, sphingosyl phosphoryicholine]
membrane lysosphingolipid content, 0 hours of incubation [3]: 5 ± 1 pmoles lysosphingolipid/mg pla | membrane lysosphingolipid content, 0.5 hours of incubation [3]: 65 ± 15 pmoles lysosphingolipid/mg pla | membrane lysosphingolipid content, 1.0 hours of incubation [3]: 110 ± 15 pmoles lysosphingolipid/mg pla | membrane lysosphingolipid content, 2.0 hours of incubation [3]: 120 ± 10 pmoles lysosphingolipid/mg pla | membrane lysosphingolipid content, 3.0 hours of incubation [3]: 145 ± 25 pmoles lysosphingolipid/mg pla | convulsant behavior, compound alone ([1]; 125 nmoles ICV): displayed no convulsant behavior | convulsant behavior, compound alone ([1]; 150 nmoles ICV): displayed no convulsant behavior | effective dose ([1]; rat): 125 nmol and 150 nmol | sedation produced by the lysosphingolipid ([1]; Lysosphingomyelin 150 nmoles ICV): mild sedation | behavioral or neurotoxic effects of the compound itself ([1]; doses as high as 125 nmoles per animal ICV): no behavioral or neurotoxic effects were observed | behavioral and histological changes caused by quisqualate ([1]; pretreated with 125 nmoles ICV, rat): absent | number of convulsions or spasms ([1]; pretreatment 125 nmoles ICV 30 minutes before quisqualate 225 nmoles, n=6): significantly (p<01) attenuated | number of convulsions or spasms ([1]; pretreatment 150 nmoles ICV 30 minutes before quisqualate 225 nmoles, n=6): significantly (p<01) attenuated | time quisqualate-alone animals spent in teeth chattering, akinesia and mobilization compared with this group ([1]; quisqualate 225 nmoles and lysophingomyelin 150 nmoles ICV): significantly (p<.01) more time

CCCCCCCCCCCCC/C=C/[C@@H](O)[C@@H](N)CO [sphingosine]
membrane lysosphingolipid content, 0 hours of incubation [3]: 105 ± 5 pmoles lysosphingolipid/mg pla | membrane lysosphingolipid content, 0.5 hours of incubation [3]: 113 ± 15 pmoles lysosphingolipid/mg pla | membrane lysosphingolipid content, 1.0 hours of incubation [3]: 140 ± 15 pmoles lysosphingolipid/mg pla | membrane lysosphingolipid content, 2.0 hours of incubation [3]: 165 ± 20 pmoles lysosphingolipid/mg pla | membrane lysosphingolipid content, 3.0 hours of incubation [3]: 175 ± 25 pmoles lysosphingolipid/mg pla

— US6083920A, “Compositions for modulating intracellular inositol trisphosphate concentration” (priority 1996, dated 2000)
